pKi: −log10 of the molar value.
Columns and labels:
[1] = biological target: Neuronal acetylcholine receptor; alpha4/beta2 (Rattus norvegicus, UniProt P09483+P12390); assay: (§1) Displacement of [3H]cytisine from alpha4beta2 nAChR in rat brain membrane after 3 hrs; format: cell membranes
[2] = biological target: Neuronal acetylcholine receptor; alpha4/beta2 (Rattus norvegicus) (UniProt P09483+P12390); assay: as §1; format: cell membranes
[3] = biological target: Neuronal acetylcholine receptor subunit alpha-7 (Rattus norvegicus) (UniProt Q05941); details: Brain, Membrane
Chain of Neuronal acetylcholine receptor subunit alpha-7 (Rattus norvegicus) (Q05941 whole entry): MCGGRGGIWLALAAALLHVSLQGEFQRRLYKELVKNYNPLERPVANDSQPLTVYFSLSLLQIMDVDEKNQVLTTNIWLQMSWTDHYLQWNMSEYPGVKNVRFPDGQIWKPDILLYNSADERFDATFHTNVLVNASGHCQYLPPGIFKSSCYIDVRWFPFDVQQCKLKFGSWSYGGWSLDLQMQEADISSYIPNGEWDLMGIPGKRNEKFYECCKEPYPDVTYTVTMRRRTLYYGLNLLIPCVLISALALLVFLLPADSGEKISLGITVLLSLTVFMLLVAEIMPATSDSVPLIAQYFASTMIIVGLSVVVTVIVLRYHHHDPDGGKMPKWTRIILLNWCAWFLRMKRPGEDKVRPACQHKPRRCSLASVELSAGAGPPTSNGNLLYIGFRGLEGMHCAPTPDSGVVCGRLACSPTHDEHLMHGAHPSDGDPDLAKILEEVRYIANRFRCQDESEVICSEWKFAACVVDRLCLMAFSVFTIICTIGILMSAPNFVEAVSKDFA
Description: (§2) Displacement of [125I]-alpha-bungarotoxin from alpha7 nAChR in rat brain membrane after 3 hrs

[4] = biological target: Neuronal acetylcholine receptor subunit alpha-7 (Rattus norvegicus, UniProt Q05941); format: cell membranes, Brain, Membrane
Chain of Neuronal acetylcholine receptor subunit alpha-7 (Q05941 whole entry): as above
Description: as §2

Chain of Neuronal acetylcholine receptor; alpha4/beta2 (P09483 whole entry): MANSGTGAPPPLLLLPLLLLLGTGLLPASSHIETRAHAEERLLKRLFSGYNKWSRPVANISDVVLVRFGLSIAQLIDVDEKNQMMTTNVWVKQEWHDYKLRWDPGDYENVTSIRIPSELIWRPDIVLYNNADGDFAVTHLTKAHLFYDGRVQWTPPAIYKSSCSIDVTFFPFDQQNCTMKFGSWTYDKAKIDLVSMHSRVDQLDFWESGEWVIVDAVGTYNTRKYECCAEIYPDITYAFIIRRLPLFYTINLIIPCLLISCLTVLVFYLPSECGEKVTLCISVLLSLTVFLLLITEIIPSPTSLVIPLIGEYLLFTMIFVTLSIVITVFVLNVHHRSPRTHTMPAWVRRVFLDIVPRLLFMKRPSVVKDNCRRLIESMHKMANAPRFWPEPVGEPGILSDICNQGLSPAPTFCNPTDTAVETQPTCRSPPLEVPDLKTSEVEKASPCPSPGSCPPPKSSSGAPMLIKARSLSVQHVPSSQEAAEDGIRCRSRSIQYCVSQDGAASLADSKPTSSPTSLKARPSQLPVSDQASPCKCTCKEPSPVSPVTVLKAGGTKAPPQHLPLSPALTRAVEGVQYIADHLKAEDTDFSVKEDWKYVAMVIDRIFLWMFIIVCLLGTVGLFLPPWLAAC
Chain of Neuronal acetylcholine receptor; alpha4/beta2 (P12390 whole entry): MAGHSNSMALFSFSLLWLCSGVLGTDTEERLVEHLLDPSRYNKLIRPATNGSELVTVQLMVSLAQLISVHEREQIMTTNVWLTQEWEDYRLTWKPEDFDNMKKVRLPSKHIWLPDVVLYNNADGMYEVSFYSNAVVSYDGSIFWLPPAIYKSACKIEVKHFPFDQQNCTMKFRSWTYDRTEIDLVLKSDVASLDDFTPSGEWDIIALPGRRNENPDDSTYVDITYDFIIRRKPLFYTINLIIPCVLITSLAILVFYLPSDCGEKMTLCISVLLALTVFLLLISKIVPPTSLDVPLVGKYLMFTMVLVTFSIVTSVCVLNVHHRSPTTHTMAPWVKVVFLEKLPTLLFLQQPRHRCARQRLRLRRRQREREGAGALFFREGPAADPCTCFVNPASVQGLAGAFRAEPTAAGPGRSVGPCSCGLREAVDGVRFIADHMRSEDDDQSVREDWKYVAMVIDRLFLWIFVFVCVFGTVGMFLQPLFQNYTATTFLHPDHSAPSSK

| SMILES | pKi [1] | Ki [2] [nM] | Ki [3] [nM] | pKi [4] |
| --- | --- | --- | --- | --- |
| FC(F)Oc1ccccc1/C=C1\CCCN=C1c1cccnc1 | 5.85 |  |  |  |
| C(=C1/CCCN=C1c1cccnc1)/c1ccc2c(c1)OCCO2 |  | 284 | 699 |  |
| Oc1ccc(/C=C2\CCCN=C2c2cccnc2)cc1 | 6.35 | 347 | 444 | 6.44 |
| COc1ccc2cc(/C=C3\CCCN=C3c3cccnc3)ccc2c1 |  | 222 | 432 |  |
| COc1ccc(/C=C2\CCCN=C2c2cccnc2)cc1 | 6.31 | 310 | 244 | 6.24 |
| COc1ccc(/C=C2\CCCN=C2c2cccnc2)c(O)c1 | 6.41 | 409 | 495 | 6.49 |
| COc1cc(/C=C2\CCCN=C2c2cccnc2)cc(OC)c1OC | 5.33 | 669 | 542 | 5.46 |
| C(=C1/CCCN=C1c1cccnc1)/c1ccc(N2CCOCC2)cc1 | 6.55 | 553 | 523 | 6.52 |
| FC(F)Oc1ccc(/C=C2\CCCN=C2c2cccnc2)cc1 | 5.94 | 64 | 4 | 6.00 |
| CNc1ccc(/C=C2\CCCN=C2c2cccnc2)cc1 | 7.30 | 1300 | 1300 | 7.30 |
| CCCCOc1ccc(/C=C2\CCCN=C2c2cccnc2)cc1 | 5.71 |  |  |  |
| COc1cc(OC)c(/C=C2\CCCN=C2c2cccnc2)c(OC)c1 | 7.22 | 1220 | 745 | 6.74 |
| C(=C1/CCCN=C1c1cccnc1)/c1ccccc1 [3-BENZYLIDENEANABASEINE] | 6.07 | 71 | 222 | 6.22 |
| CSc1ccc(/C=C2\CCCN=C2c2cccnc2)cc1 | 6.05 | 46 | 602 | 6.60 |
| CC(=O)Nc1ccc(/C=C2\CCCN=C2c2cccnc2)cc1 | 6.42 | 420 | 620 | 6.62 |
| FC(F)(F)Oc1ccccc1/C=C1\CCCN=C1c1cccnc1 | 5.75 | 246 |  |  |
| COc1ccc(/C=C2\CCCN=C2c2cccnc2)c(OC)c1 [GTS-21] | 6.60 | 602 | 886 | 6.89 |
| Oc1ccc(/C=C2\CCCN=C2c2cccnc2)c(O)c1 | 6.68 | 678 | 699 | 6.70 |
| N#Cc1ccc(/C=C2\CCCN=C2c2cccnc2)cc1 | 5.91 | 90 | 362 | 5.64 |
| C(=C1/CCCN=C1c1cccnc1)/c1cc2ccccc2o1 |  | 772 | 823 |  |
| CN(C)c1ccc(/C=C2\CCCN=C2c2cccnc2)cc1 | 6.77 | 770 | 1100 | 7.10 |
| FC(F)(F)Oc1ccc(/C=C2\CCCN=C2c2cccnc2)cc1 | 6.03 |  |  |  |

| SMILES | pKi [1] | Ki [2] [nM] | Ki [3] [nM] | pKi [4] |
| --- | --- | --- | --- | --- |
| CCCc1ccc(/C=C2\CCCN=C2c2cccnc2)cc1 | 6.05 | 51 | 553 | 6.55 |
| C(=C1/CCCN=C1c1cccnc1)/c1ccc(-n2ccnn2)cc1 |  | 284 | 72 |  |
| CC(=O)Oc1ccccc1/C=C1\CCCN=C1c1cccnc1 | 6.15 | 155 | 244 | 6.24 |
| Clc1ccc(/C=C2\CCCN=C2c2cccnc2)cc1 | 6.01 | 13 | 49 | 5.95 |
| CC(C)(C)Oc1ccc(/C=C2\CCCN=C2c2cccnc2)cc1 | 5.66 | 336 | 348 | 5.65 |
| CC(=O)Oc1ccc(/C=C2\CCCN=C2c2cccnc2)cc1 | 6.60 | 602 | 770 | 6.77 |
| CC(C)(C)C(=O)Oc1ccccc1/C=C1\CCCN=C1c1cccnc1 | 5.84 | 158 | 187 | 6.19 |
| Nc1ccc(/C=C2\CCCN=C2c2cccnc2)cc1 | 6.92 | 921 | 1300 | 7.30 |
| Cc1cc(O)cc(C)c1/C=C1\CCCN=C1c1cccnc1 | 6.17 | 174 | 740 | 5.26 |
| COc1ccc(/C=C2\CCCN=C2c2cccnc2)c(OC(C)=O)c1 | 6.11 | 114 | 523 | 6.52 |
| COc1cccc(/C=C2\CCCN=C2c2cccnc2)c1 | 5.93 | 72 | 337 | 6.34 |
| CCN(CC)c1ccc(/C=C2\CCCN=C2c2cccnc2)c(O)c1 | 6.89 | 886 | 1300 | 7.30 |
| CC(C)(C)C(=O)Oc1ccc(/C=C2\CCCN=C2c2cccnc2)cc1 | 6.08 | 81 | 161 | 6.16 |
| CC(=O)c1ccc(/C=C2\CCCN=C2c2cccnc2)cc1 | 5.35 |  |  |  |
| Cc1ccc(/C=C2\CCCN=C2c2cccnc2)cc1 | 6.00 | 4 | 361 | 6.36 |
| CCC(CC)Oc1cc(OC)ccc1/C=C1\CCCN=C1c1cccnc1 | 6.37 | 367 | 1300 | 7.30 |
| Cc1cc(C)c(/C=C2\CCCN=C2c2cccnc2)c(C)c1 | 6.28 | 284 | 179 | 5.82 |
| COc1ccc(/C=C2\CCCN=C2c2cccnc2)c(OC(C)C)c1 | 6.77 | 770 | 1160 | 7.15 |
| Oc1cccc(/C=C2\CCCN=C2c2cccnc2)c1 | 5.93 | 68 | 824 | 6.82 |
| OCCN(CCO)c1ccc(/C=C2\CCCN=C2c2cccnc2)cc1 | 6.80 | 796 | 721 | 6.72 |
| C(=C1/CCCN=C1c1cccnc1)/c1ccc2c(c1)OCO2 |  | 155 | 638 |  |
| Cc1cc(/C=C2\CCCN=C2c2cccnc2)cc(C)c1O | 6.44 | 444 | 276 | 6.28 |

Source: ChEMBL document CHEMBL1165900, “A computational study of the binding of 3-(arylidene) anabaseines to two major brain nicotinic acetylcholine receptors and to the acetylcholine binding protein” (Eur J Med Chem, 2010)
